Measurements taken from patent publication US20090239748A1, “Fungicidal Mixtures Based on 2,5-Disubstituted N-Biphenylpyrazolcarboxamides” (BASF Aktiengesellschaft, priority 2005, published 2009).
Blank lines part the entries; values can stand above or below the compound they belong to.

Key:
Botrytis cinerea = assay: Activity against gray mold on bell pepper leaves caused by Botrytis cinerea, 1 day protective application; type: in vivo; conditions: sprayed 1 day before inoculation, read after 5 days
Protocol: (§1) The active compounds, separately or jointly, were prepared as a stock solution comprising 25 mg of active compound which was made up to 10 ml using a mixture of acetone and/or dimethyl sulfoxide and the emulsifier Uniperol® EL (wetting agent having an emulsifying and dispersing action based on ethoxylated alkylphenols) in a ratio by volume of solvent/emulsifier of 99:1. The mixture was then made up to 100 ml with water. This stock solution was diluted with the solvent/emulsifier/water mixture described to give the concentration of active compound stated below.
(§2) The visually determined percentages of infected leaf areas were converted into efficacies in % of the untreated control.
(§3) The efficacy (E) is calculated as follows using Abbot's formula: […]
(§4) The expected efficacies of active compound mixtures were determined using Colby's formula [R. S. Colby, “Calculating synergistic and antagonistic responses of herbicide combinations”, Weeds 15, 20-22 (1967)] and compared with the observed efficacies. […]
Bell pepper seedlings of the cultivar “Neusiedler Ideal Elite” were, after 2-3 leaves were well developed, sprayed to runoff point with an aqueous suspension having the active compound concentration stated below. […] After 5 days, the extent of the fungal infection on the leaves could be determined visually in %.

Puccinia recondita = assay: Protective activity against Puccinia recondita on wheat (brown rust of wheat); type: in vivo
Protocol: as §1
(§5) Alternatively, the active compounds epoxiconazole and pyraclostrobin were used as a commercial formulation and diluted with water to the stated active compound concentrations.
as §2, §3
α corresponds to the fungicidal infection of the treated plants in % and β corresponds to the fungicidal infection of the untreated (control) plants in %
An efficacy of 0 means that the infection level of the treated plants corresponds to that of the untreated control plants; an efficacy of 100 means that the treated plants were not infected.
(§6) The expected efficacies of active compound mixtures were determined using Colby's formula [R. S. Colby, “Calculating synergistic and antagonistic responses of herbicide combinations”, Weeds 15, 20-22 (1967)] and compared with the observed efficacies.
(§7) E=x+y−x·y/100 • E expected efficacy, expressed in % of the untreated control, when using the mixture of the active compounds A and B at the concentrations a and b; • x efficacy, expressed in % of the untreated control, when using the active compound A at the concentration a; • y efficacy, expressed in % of the untreated control, when using the active compound B at the concentration b.
Leaves of potted wheat seedlings of the cultivar “Kanzler” were sprayed to runoff point with an aqueous suspension having the active compound concentration stated below. The next day, the treated plants were inoculated with a spore suspension of brown rust of wheat (Puccinia recondita). The plants were then placed in a chamber with high atmospheric humidity (90 to 95%) at 20 to 22° C. for 24 hours. During this time, the spores germinated and the germ tubes penetrated into the leaf tissue. The next day, the test plants were returned to the greenhouse and cultivated at temperatures between 20 and 22° C. and at 65 to 70% relative atmospheric humidity for a further 7 days. The extent of the rust fungus development on the leaves was then determined visually.

[1] = tested on: Pyrenophora [syn. Drechslera] teres; assay: Activity against net blotch of barley caused by Pyrenophora teres, 1 day protective application; type: in vivo; conditions: 0.25 mg/l, read after 6 days
Protocol: as §1, with “below. […]” for “below.”
as §2, §3, §4
Leaves of potted barley seedlings were sprayed to runoff point with an aqueous suspension having the active compound concentration stated below. […] After 6 days, the extent of the development of the disease was determined visually in % infection of the entire leaf area.

Phakopsora pachyrhizi = assay: Curative activity against soybean rust caused by Phakopsora pachyrhizi; type: in vivo; conditions: 0.25 mg/l, curative (sprayed 2 days after inoculation), 14 days
Protocol: as §1, §5, §2, §3, §4
Leaves of potted soybean seedlings of the cultivar “Oxford” were inoculated with a spore suspension of soybean rust (Phakopsora pachyrhizi). […] The extent of the rust fungus development on the leaves was then determined.

Septoria tritici = assay: Activity against the Septoria leaf spot pathogen Septoria tritici in the microtiter test; type: cell-based; conditions: microtiter plate, 405 nm, day 7
Protocol: as §6, §7
For this test, the active compounds were formulated separately as a stock solution having a concentration of 10 000 ppm in dimethyl sulfoxide.
The stock solution was mixed according to the ratio, pipetted into a microtiter plate (MTP) and diluted with an aqueous malt-based fungus nutrient medium to the stated active compound concentration. An aqueous spore suspension of Septoria tritici was then added. […] Using an absorbtion photometer, the MTPs were measured at 405 nm on day 7 after the inoculation.
The measured parameters were compared to the growth of the active compound-free control variant (100%) and the fungus- and active compound-free blank value to determine the relative growth in % of the pathogens in the individual active compounds.

Compound: CC1CCN(c2c(-c3c(F)cc(F)cc3F)c(Cl)nc3ncnn23)CC1 [5-chloro-7-(4-methylpiperidin-1-yl)-6-(2,4,6-trifluorophenyl)-[1,2,4]triazolo[1,5-a]-pyrimidine, reference compound]
Observed effect (% infection) (Botrytis cinerea; 4 mg/l): 40%

Compound: COc1cc(C)c(C(=O)c2c(OC)ccc(Br)c2C)c(OC)c1OC [metrafenone, 3′-bromo-2,3,4,6′-tetramethoxy-2′,6-dimethylbenzophenone, reference compound]
Observed effect (% infection) (Puccinia recondita; 4 mg/l): 0%

melting point: 130 to 132 °C
Compound: Cn1cc(C(=O)Nc2ccccc2-c2cc(Cl)ccc2Cl)c(C(F)F)n1 [No. I.4, N-(2′,5′-dichlorobiphenyl-2-yl)-1-methyl-3-difluoromethyl-1H-pyrazole-4-carboxamide]

Compound: COC(=O)N(OC)c1ccccc1COc1ccn(-c2ccc(Cl)cc2)n1 [pyraclostrobin, methyl N-{2-[1-(4-chlorophenyl)-1H-pyrazol-3-yloxymethyl]phenyl}(N-methoxy)carbamate, reference compound]
Observed effect (% infection) [1]: 33%
Observed effect (% infection) (Phakopsora pachyrhizi): 29%

Compound: COc1ccc(C(=CC(=O)N2CCOCC2)c2ccc(Cl)cc2)cc1OC [dimethomorph, 3-(4-chlorophenyl)-3-(3,4-dimethoxyphenyl)-1-morpholin-4-yl-propenone, reference compound]
Observed effect (% infection) (Septoria tritici; 4 mg/l): 20%

Compound: Fc1ccc([C@]2(Cn3cncn3)O[C@H]2c2ccccc2Cl)cc1 (racemic) [epoxiconazole, (2RS,3SR)-1-[3-(2-chlorophenyl)-2,3-epoxy-2-(4-fluorophenyl)propyl]-1H-1,2,4-triazole, reference compound]
Observed effect (% infection) (Puccinia recondita; 0.25 mg/l): 5%

melting point: 139 to 141 °C
Compound: Cn1cc(C(=O)Nc2ccccc2-c2cc(F)ccc2F)c(C(F)F)n1 [No. I.2, N-(2′,5′-difluorobiphenyl-2-yl)-1-methyl-3-difluoromethyl-1H-pyrazole-4-carboxamide]
Observed effect (% infection) (Puccinia recondita; 1 mg/l): 52%
Observed effect (% infection) [1]: 0%

melting point: 131 to 135 °C
Compound: Cn1cc(C(=O)Nc2ccccc2-c2cc(Cl)ccc2Cl)c(C(F)(F)F)n1 [No. I.5, N-(2′,5′-dichlorobiphenyl-2-yl)-1-methyl-3-trifluoromethyl-1H-pyrazole-4-carboxamide]

Compound: Cn1cc(C(=O)Nc2ccccc2-c2cc(F)ccc2F)c(C(F)(F)F)n1 [No. I.1, N-(ortho-(2,5-difluorophenyl)phenyl)-1-methyl-3-trifluoromethylpyrazole-4-carboxamide]
Observed effect (% infection) (Botrytis cinerea; 1 mg/l): 0%
Observed effect (% infection) (Puccinia recondita; 1 mg/l): 5%
Observed effect (% infection) (Phakopsora pachyrhizi): 29%
Observed effect (% infection) (Septoria tritici; 1 mg/l): 0%
